This assay deals with T1, human CRTH2 (Homo sapiens, UniProt Q9Y5Y4).
T1 construct: expressed in transfected cells
T1 sequence (Q9Y5Y4 1-395): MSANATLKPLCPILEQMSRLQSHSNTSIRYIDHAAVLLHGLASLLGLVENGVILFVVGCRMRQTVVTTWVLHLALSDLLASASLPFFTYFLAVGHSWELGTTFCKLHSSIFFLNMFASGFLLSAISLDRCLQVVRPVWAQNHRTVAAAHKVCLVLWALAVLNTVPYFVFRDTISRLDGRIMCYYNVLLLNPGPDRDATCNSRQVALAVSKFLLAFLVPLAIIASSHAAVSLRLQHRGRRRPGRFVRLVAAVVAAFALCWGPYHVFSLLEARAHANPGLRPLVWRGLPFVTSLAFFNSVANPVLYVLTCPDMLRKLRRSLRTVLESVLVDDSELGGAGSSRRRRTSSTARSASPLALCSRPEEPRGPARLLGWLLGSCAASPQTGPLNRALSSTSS
Nature of the assay: Human CRTH2 Receptor Binding Assay (whole cell, [3H]ramatroban competition). Conditions: CHO-K1 cells expressing human CRTH2 and G-alpha16; 20 nM [3H]ramatroban; 1 hour, room temperature. The source says:
A whole cell receptor binding assay using [^3H]ramatroban as the competing radioactive ligand was employed to evaluate the compound binding activity to human CRTH2. The radioactive ligand [^3H]ramatroban was synthesized according to Sugimoto et. al. (Eur. J. Pharmacol. 524, 30-37, 2005) to a specific activity of 42 Ci/mmol.
A cell line stably expressing human CRTH2 was established by transfecting CHO-K1 cells with two mammalian expression vectors that harbored human CRTH2 and G-alpha16 cDNAs, respectively, using FuGene® 6 transfection reagent (from Roche). Stable clones expressing CRTH2 were selected by staining each clone with BM16 (BD Pharmingen™ from BD Biosciences, a division of Becton, Dickinson and Company), which is a rat monoclonal antibody to human CRTH2. The cells were maintained as monolayer cultures in Ham's F-12 medium containing 10% fetal bovine serum, 100 units/mL penicillin, 100 μg/mL streptomycin, 2 mM glutamine, 0.5 mg/mL G418 (geneticin) for CRTH2, and 0.2 mg/mL hygromycin-B (for G-alpha 16). For whole cell receptor binding assay, the monolayer cells were rinsed once with PBS (phosphate buffered saline), dissociated using ethylenediaminetetraacetate (Versene™ EDTA Lonza Inc.), and suspended in PBS containing 10 mM MgCl2 and 0.06% BSA (bovine serum albumin) at 1.5×10^6 cells/mL.
The binding reactions (0.2 mL) were performed in 96-well plates at room temperature in PBS containing 1.5×10^5 cells, 10 mM MgCl2, 0.06% BSA, 20 nM [^3H]ramatroban, and test compound at various concentrations. After 1 hour of binding reactions, the cells were harvested on GF™/B filter microplates (microtiter plates with embedded glass fiber from PerkinElmer, Inc.) and washed 5 times with PBS using a Filtermate™ Harvester (a cell harvester that harvests and washes cells from microplates from PerkinElmer, Inc.). The radioactivities bound to the cells were determined using a microplate scintillation counter (TopCount® NXT, from PerkinElmer, Inc.) after adding 50 μL of Microscint™ 20 scintillation fluid (from PerkinElmer, Inc.) to each well of the filter plates. The radioactivity from non-specific binding was determined by replacing compound with 10 μM of 15(R)-15-methyl PGD2 (from Cayman Chemical Company) in the reaction mixtures. The radioactivity bound to the cells in the absence of compound (total binding) was determined by replacing compound with 0.25% of DMSO (dimethyl sulfoxide) in the reaction mixture. Specific binding data were obtained by subtracting the radioactivity of non-specific binding from each binding data.
The IC50 value is defined as the concentration of the tested compound that is required for 50% inhibition of total specific binding. In order to calculate the IC50 value, the percent inhibition data were determined for 7 concentrations for each compound. The percent inhibition for a compound at each concentration was calculated according to the following formula, [1-(specific binding in the presence of compound)/(total specific binding)]x100. The IC50 value was then obtained by fitting the percent inhibition data to a sigmoidal dose-response (4 parameter logistic) model in the XLfit® software Excel add-in program [from ID Business Solutions Ltd., model 205, where F(x)=(A+(B−A)/(1+((C/x)^D)))].
The IC50 is the point on the concentration scale where inhibition reaches its midpoint. Take `CN([C@@H]1CCCc2c1cnn2CC(=O)O)S(=O)(=O)c1ccc(Oc2ccc(Cl)cc2)c(Cl)c1` [Example 9-3a, ((R)-4-{[3-Chloro-4-(4-chloro-phenoxy)-benzenesulfonyl]-methyl-amino}-4,5,6,7-tetrahydro-indazol-1-yl)-acetic acid]: the IC50 worked out at 11.1 nM. The compound `CN([C@@H]1CCCc2c1cnn2CC(=O)O)S(=O)(=O)c1ccc(Oc2ccc(Cl)cc2)cc1Cl` [Example 9-4a, ((R)-4-{[2-Chloro-4-(4-chloro-phenoxy)-benzenesulfonyl]-methyl-amino}-4,5,6,7-tetrahydro-indazol-1-yl)-acetic acid] showed an IC50 of 37.1 nM.

In turn, `CN([C@@H]1CCCc2c1cnn2CC(=O)O)S(=O)(=O)c1ccc(Oc2ccc(Cl)cc2)c(C(F)(F)F)c1` [Example 9-5a, ((R)-4-{[4-(4-Chloro-phenoxy)-3-trifluoromethyl-benzenesulfonyl]-methyl-amino}-4,5,6,7-tetrahydro-indazol-1-yl)-acetic acid] returned an IC50 of 8.2 nM. As for `CN([C@@H]1CCCc2c1cnn2CC(=O)O)S(=O)(=O)c1ccc(Oc2ccc(Cl)cc2Cl)c(Cl)c1` [Example 9-6a, ((R)-4-{[3-Chloro-4-(2,4-dichloro-phenoxy)-benzenesulfonyl]-methyl-amino}-4,5,6,7-tetrahydro-indazol-1-yl)-acetic acid], the IC50 was found to be 21.7 nM. Next, `CN([C@@H]1CCCc2c1cnn2CC(=O)O)S(=O)(=O)c1ccc(Oc2ccc(C(C)(C)C)cc2)c(Cl)c1` [Example 9-7a, ((R)-4-{[4-(4-tert-Butyl-phenoxy)-3-chloro-benzenesulfonyl]-methyl-amino}-4,5,6,7-tetrahydro-indazol-1-yl)-acetic acid]: 12.6 nM; `CN([C@@H]1CCCc2c1cnn2CC(=O)O)S(=O)(=O)c1ccc(Oc2ccc(Cl)cc2Cl)cc1Cl` [Example 9-8a, ((R)-4-{[2-Chloro-4-(2,4-dichloro-phenoxy)-benzenesulfonyl]-methyl-amino}-4,5,6,7-tetrahydro-indazol-1-yl)-acetic acid]: 91.4 nM; `CN([C@@H]1CCCc2c1cnn2CC(=O)O)S(=O)(=O)c1ccc(Oc2ccc(F)cc2Cl)cc1Cl` [Example 9-9a, ((R)-4-{[2-Chloro-4-(2-chloro-4-fluoro-phenoxy)-benzenesulfonyl]-methyl-amino}-4,5,6,7-tetrahydro-indazol-1-yl)-acetic acid]: 70 nM. Then `CN([C@@H]1CCCc2c1cnn2CC(=O)O)S(=O)(=O)c1ccc(Oc2ccccc2Cl)cc1Cl` [Example 9-10a, ((R)-4-{[2-Chloro-4-(2-chloro-phenoxy)-benzenesulfonyl]-methyl-amino}-4,5,6,7-tetrahydro-indazol-1-yl)-acetic acid], with 97.2 nM. Then `CN([C@@H]1CCCc2c1cnn2CC(=O)O)S(=O)(=O)c1ccc(Oc2ccc(Cl)cc2F)c(Cl)c1` [Example 9-11a, ((R)-4-{[3-Chloro-4-(4-chloro-2-fluoro-phenoxy)-benzenesulfonyl]-methyl-amino}-4,5,6,7-tetrahydro-indazol-1-yl)-acetic acid], with 7.2 nM; and `CN([C@@H]1CCCc2c1cnn2CC(=O)O)S(=O)(=O)c1ccc(Oc2ccc(Cl)cc2)c(F)c1` [Example 9-12a, ((R)-4-{[4-(4-Chloro-phenoxy)-3-fluoro-benzenesulfonyl]-methyl-amino}-4,5,6,7-tetrahydro-indazol-1-yl)-acetic acid], with 7.4 nM.

In the case of `CN([C@@H]1CCCc2c1cnn2CC(=O)O)S(=O)(=O)c1ccc(Oc2ccccc2)c(Cl)c1` [Example 9-13a, {(R)-4-[(3-Chloro-4-phenoxy-benzenesulfonyl)-methyl-amino]-4,5,6,7-tetrahydro-indazol-1-yl}-acetic acid], the IC50 was 9.5 nM. Then `CN([C@@H]1CCCc2c1cnn2CC(=O)O)S(=O)(=O)c1ccc(Oc2ccc(F)cc2)c(Cl)c1` [Example 9-14a, ((R)-4-{[3-Chloro-4-(4-fluoro-phenoxy)-benzenesulfonyl]-methyl-amino}-4,5,6,7-tetrahydro-indazol-1-yl)-acetic acid], with 4.4 nM; and `Cc1ccc(Oc2ccc(S(=O)(=O)N(C)[C@@H]3CCCc4c3cnn4CC(=O)O)cc2Cl)cc1` [Example 9-15a, {(R)-4-[(3-Chloro-4-p-tolyloxy-benzenesulfonyl)-methyl-amino]-4,5,6,7-tetrahydro-indazol-1-yl}-acetic acid], with 10.3 nM.

Regarding `CN([C@@H]1CCCc2c1cnn2CC(=O)O)S(=O)(=O)c1ccc(Oc2ccc(F)cc2Cl)c(Cl)c1` [Example 9-16a, ((R)-4-{[3-Chloro-4-(2-chloro-4-fluoro-phenoxy)-benzenesulfonyl]-methyl-amino}-4,5,6,7-tetrahydro-indazol-1-yl)-acetic acid], the 50% inhibitory concentration (IC50) came to 8 nM.

Compound `COc1cc(F)ccc1Oc1ccc(S(=O)(=O)N(C)[C@@H]2CCCc3c2cnn3CC(=O)O)cc1Cl` [Example 9-17a, ((R)-4-{[3-Chloro-4-(4-fluoro-2-methoxy-phenoxy)-benzenesulfonyl]-methyl-amino}-4,5,6,7-tetrahydro-indazol-1-yl)-acetic acid] returned an IC50 of 12.9 nM. In the case of `Cc1ccc(Cl)c(Oc2ccc(S(=O)(=O)N(C)[C@@H]3CCCc4c3cnn4CC(=O)O)cc2Cl)c1` [Example 9-18a, ((R)-4-{[3-Chloro-4-(2-chloro-5-methyl-phenoxy)-benzenesulfonyl]-methyl-amino}-4,5,6,7-tetrahydro-indazol-1-yl)-acetic acid], the half-maximal inhibitory concentration (IC50) amounted to 13.4 nM.

Regarding `Cc1ccc(Oc2ccc(S(=O)(=O)N(C)[C@@H]3CCCc4c3cnn4CC(=O)O)cc2Cl)c(C)c1` [Example 9-19a, ((R)-4-{[3-Chloro-4-(2,4-dimethyl-phenoxy)-benzenesulfonyl]-methyl-amino}-4,5,6,7-tetrahydro-indazol-1-yl)-acetic acid], the IC50 was found to be 11.4 nM. In turn, `COc1cc(Cl)ccc1Oc1ccc(S(=O)(=O)N(C)[C@@H]2CCCc3c2cnn3CC(=O)O)cc1Cl` [Example 9-20a, ((R)-4-{[3-Chloro-4-(4-chloro-2-methoxy-phenoxy)-benzenesulfonyl]-methyl-amino}-4,5,6,7-tetrahydro-indazol-1-yl)-acetic acid] had a 50% inhibitory concentration (IC50) of 10.2 nM. `CN([C@@H]1CCCc2c1cnn2CC(=O)O)S(=O)(=O)c1ccc(Oc2ccc(Cl)c(F)c2)c(Cl)c1` [Example 9-21a, ((R)-4-{[3-Chloro-4-(4-chloro-3-fluoro-phenoxy)-benzenesulfonyl]-methyl-amino}-4,5,6,7-tetrahydro-indazol-1-yl)-acetic acid] returned an IC50 of 13.2 nM. Compound `CN([C@@H]1CCCc2c1cnn2CC(=O)O)S(=O)(=O)c1ccc(Oc2cc(F)ccc2F)c(Cl)c1` [Example 9-22a, ((R)-4-{[3-Chloro-4-(2,5-difluoro-phenoxy)-benzenesulfonyl]-methyl-amino}-4,5,6,7-tetrahydro-indazol-1-yl)-acetic acid] showed an IC50 of 24.2 nM. `CN([C@@H]1CCCc2c1cnn2CC(=O)O)S(=O)(=O)c1ccc(Oc2ccc(Br)cc2)c(Cl)c1` [Example 9-23a, ((R)-4-{[4-(4-Bromo-phenoxy)-3-chloro-benzenesulfonyl]-methyl-amino}-4,5,6,7-tetrahydro-indazol-1-yl)-acetic acid] registered an IC50 of 6.7 nM. With `CN([C@@H]1CCCc2c1cnn2CC(=O)O)S(=O)(=O)c1ccc(Oc2ccc(F)c(Cl)c2)c(Cl)c1` [Example 9-24a, ((R)-4-{[3-Chloro-4-(3-chloro-4-fluoro-phenoxy)-benzenesulfonyl]-methyl-amino}-4,5,6,7-tetrahydro-indazol-1-yl)-acetic acid], the half-inhibitory concentration (IC50) stood at 16.5 nM.

For the origin of these results see US8420675B2, “Aminotetrahydroindazoloacetic acids” (Hoffmann-La Roche Inc., priority 2008, dated 2013).
